From PubChem BioAssay AID1863 (Southern Research Specialized Biocontainment Screening …, 2009)

tested on: S. Typhimurium PhoP-regulated promoter GFP reporter, 4 h; assay: inhibitors of PhoP regulon expression, primary screen, Salmonella Typhimurium, GFP reporter (AID 1863)

First: CCCCC(CC)CN=C(N)NC(N)=NCCCCCCN=C(N)NC(N)=NCC(CC)CCCC (configuration not stated)
Second: CCCCCCCSc1cc(OC)c(CCNC)cc1OC
The IC50 of the first is 7.8-fold lower: 7.11 µM for the first, 55.7 µM for the second.

First: Fc1ccc(Nc2nc(NCc3ccco3)c3ccccc3n2)cc1
Second: O=C(C[n+]1cc(-c2ccc(Cl)cc2)n2c1CCC2)Nc1nc(-c2ccc(F)cc2)cs1
The IC50 of the first is 1.9-fold lower: 37.9 µM for the first, 73.7 µM for the second.

Compared with `CCn1cc(C(=O)O)c(=O)c2cc(F)c(N3CCN(C(=S)Nc4ccc(OC)cc4)CC3)cc21`, `CN1CCN(C(c2ccc(Br)cc2)c2cc(Cl)c3cccnc3c2O)CC1` (configuration not stated) is 5-fold higher in IC50: 6.05 µM for the first, 30.4 µM for the second.

First: CC(=O)c1c(C)n([O-])c2cc(F)c(F)cc2[n+]1=O
Second: Cc1cc2nc3ccc(=[N+](C)C)cc-3sc2cc1N
The IC50 of the first is 4-fold higher: 130 µM for the first, 32.3 µM for the second.

`CC(Cc1ccccc1)NCc1ccccc1O` (configuration not stated) and `O=C(CSc1ccccn1)N/N=C/c1cc([N+](=O)[O-])ccc1O` are within 1.5-fold of each other in IC50: 40.3 µM for the first, 58 µM for the second.

Going from `Clc1ccc(CN2CCC(c3nc4ccc(Cl)cc4[nH]3)CC2)cc1` to `CCCCCCCCCCOC(=O)Cn1c(COc2cccc(C)c2)[n+](C)c2ccccc21`, the IC50 falls from 79.6 µM to 18.7 µM (4.3-fold).
